According to the NIST ThermoML archive (doi:10.1016/j.jct.2018.02.016):

Conditions: Gas chromatography

C1C2CC3CC1CC(C2)C3 [adamantane]
Liquid
Conditions	vapor or sublimation pressure [kPa]
298.15 K	0.13
310 K	0.26
320 K	0.46
330 K	0.77
340 K	1.3
350 K	2
360 K	3.1
370 K	4.6
380 K	6.8
390 K	9.8
400 K	14
410 K	19
420 K	26
430 K	35
440 K	46
545 K	460
555 K	550
565 K	650
575 K	760

C=C1CC[C@@]23C[C@@H]1C(C)(C)[C@@H]2CC[C@H]3C [beta-cedrene]
Metastable liquid
Conditions	vapor or sublimation pressure [kPa]
298.15 K	0.0031
310 K	0.0081
320 K	0.017
330 K	0.035
340 K	0.067
350 K	0.12
360 K	0.21
370 K	0.37
380 K	0.61
390 K	0.99
400 K	1.5
410 K	2.3
420 K	3.5
430 K	5.1
440 K	7.3
533.3 K	101.3

C1C2CC3C4CC5CC(C14)C(C2)C3C5 [pentacyclo[7.3.1.1(4,12).0(2,7).0(6,11)]tetradecane]
Metastable liquid
Conditions	vapor or sublimation pressure [kPa]
298.15 K	0.0016
310 K	0.0043
320 K	0.0091
330 K	0.018
340 K	0.036
350 K	0.066
360 K	0.12
370 K	0.2
380 K	0.34
390 K	0.55
400 K	0.87
410 K	1.3
420 K	2
430 K	3
440 K	4.3
516 K	44.3
526 K	56
536 K	71
546 K	89

CC1=CC[C@@]23C[C@@H]1C(C)(C)[C@@H]2CC[C@H]3C [alpha-cedrene]
Metastable liquid
Conditions	vapor or sublimation pressure [kPa]
298.15 K	0.0031
310 K	0.0081
320 K	0.017
330 K	0.035
340 K	0.067
350 K	0.12
360 K	0.22
370 K	0.37
380 K	0.61
390 K	0.99
400 K	1.5
410 K	2.4
420 K	3.5
430 K	5.1
440 K	7.3
533.2 K	101.3
